Results as given in ChEMBL document CHEMBL1201862, “PubChem BioAssay data set” (2004).
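Interpolation was linear, between the two tested concentrations surrounding the appropriate level; five concentrations were tested over 48 hours in 96-well plates. Abbreviation: GI50, concentration required for 50% inhibition of growth.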 Activity calls are given as the source filed them. Cut-off read from the data, not from the text of the source: active = GI50 up to about 1.1 µM and inactive = higher.

What was measured:
Assay in all cases: NCI anticancer screen, dose series, 48 h
786-0 = tested on: 786-0
A498 = tested on: A498
A549 = tested on: A549
ACHN = tested on: ACHN
CAKI-1 = tested on: CAKI-1
CCRF-CEM = tested on: CCRF-CEM
COLO 205 = tested on: COLO 205
DLD-1 = tested on: DLD-1
DMS-114 = tested on: DMS-114
DMS-273 = tested on: DMS-273
EKVX = tested on: EKVX
HCC 2998 = tested on: HCC 2998
HCT-116 = tested on: HCT-116
HCT-15 = tested on: HCT-15
HL-60 = tested on: HL-60
HOP-62 = tested on: HOP-62
HT-29 = tested on: HT-29
IGROV-1 = tested on: IGROV-1
K562 = tested on: K562
KM12 = tested on: KM12
LOX IMVI = tested on: LOX IMVI
LXFL 529 = tested on: LXFL 529
M14 = tested on: M14
M19-MEL = tested on: M19-MEL
MOLT-4 = tested on: MOLT-4
Malme-3M = tested on: Malme-3M
NCI-H226 = tested on: NCI-H226
NCI-H23 = tested on: NCI-H23
NCI-H460 = tested on: NCI-H460
NCI-H522 = tested on: NCI-H522
OVCAR-3 = tested on: OVCAR-3
OVCAR-4 = tested on: OVCAR-4
OVCAR-8 = tested on: OVCAR-8
RPMI-8226 = tested on: RPMI-8226
SF-268 = tested on: SF-268
SF-295 = tested on: SF-295
SF-539 = tested on: SF-539
SK-MEL-28 = tested on: SK-MEL-28
SK-MEL-2 = tested on: SK-MEL-2
SK-MEL-5 = tested on: SK-MEL-5
SK-OV-3 = tested on: SK-OV-3
SN12C = tested on: SN12C
SNB-19 = tested on: SNB-19
SNB-75 = tested on: SNB-75
SR = tested on: SR
SW-620 = tested on: SW-620
U-251 = tested on: U-251
UACC-257 = tested on: UACC-257
UACC-62 = tested on: UACC-62
UO-31 = tested on: UO-31
XF498 = tested on: XF498
HOP-18 = tested on: HOP-18
HOP-92 = tested on: HOP-92
KM-20L2 = tested on: KM-20L2
MCF7 = tested on: MCF7
NCI/ADR-RES = tested on: NCI/ADR-RES
OVCAR-5 = tested on: OVCAR-5
RXF 393 = tested on: RXF 393

CCOC(=O)C(NC(=O)c1nc[nH]c1[N+](=O)[O-])C(C)C (configuration not stated)
GI50 (786-0): 71.1 µM (inactive) | GI50 (A498): > 100 µM (inactive) | GI50 (A549): > 100 µM (inactive) | GI50 (ACHN): > 100 µM (inactive) | GI50 (CAKI-1): > 100 µM (inactive) | GI50 (CCRF-CEM): 47.2 µM (inactive) | GI50 (COLO 205): 82 µM (inactive) | GI50 (DLD-1): 25 µM (inactive) | GI50 (DMS-114): > 100 µM (inactive) | GI50 (DMS-273): 53.6 µM (inactive) | GI50 (EKVX): 94 µM (inactive) | GI50 (HCC 2998): 66.4 µM (inactive) | GI50 (HCT-116): > 100 µM (inactive) | GI50 (HCT-15): > 100 µM | GI50 (HL-60): 27.6 µM (inactive) | GI50 (HOP-62): > 100 µM (inactive) | GI50 (HT-29): 74 µM (inactive) | GI50 (IGROV-1): > 100 µM (inactive) | GI50 (K562): > 100 µM (inactive) | GI50 (KM12): > 100 µM (inactive) | GI50 (LOX IMVI): > 100 µM (inactive) | GI50 (LXFL 529): 74.3 µM (inactive) | GI50 (M14): > 100 µM (inactive) | GI50 (M19-MEL): > 100 µM (inactive) | GI50 (MOLT-4): 72.4 µM (inactive) | GI50 (Malme-3M): > 100 µM (inactive) | GI50 (NCI-H226): 30.8 µM (inactive) | GI50 (NCI-H23): 31.3 µM (inactive) | GI50 (NCI-H460): 50.6 µM (inactive) | GI50 (NCI-H522): > 100 µM (inactive) | GI50 (OVCAR-3): > 100 µM (inactive) | GI50 (OVCAR-4): > 100 µM (inactive) | GI50 (OVCAR-8): 84.9 µM (inactive) | GI50 (RPMI-8226): 72.6 µM (inactive) | GI50 (SF-268): > 100 µM (inactive) | GI50 (SF-295): 47.9 µM (inactive) | GI50 (SF-539): > 100 µM (inactive) | GI50 (SK-MEL-28): > 100 µM (inactive) | GI50 (SK-MEL-2): > 100 µM (inactive) | GI50 (SK-MEL-5): 17.3 µM (inactive) | GI50 (SK-OV-3): > 100 µM (inactive) | GI50 (SN12C): > 100 µM (inactive) | GI50 (SNB-19): > 100 µM (inactive) | GI50 (SNB-75): > 100 µM (inactive) | GI50 (SR): 61.1 µM (inactive) | GI50 (SW-620): > 100 µM (inactive) | GI50 (U-251): 34.5 µM (inactive) | GI50 (UACC-257): 94.8 µM (inactive) | GI50 (UACC-62): > 100 µM (inactive) | GI50 (UO-31): > 100 µM (inactive) | GI50 (XF498): 19.9 µM (inactive)

COc1cc(/N=N\c2cccc(S(=O)(=O)O)c2)c(C)cc1/N=N\c1ccc(/C=C/c2ccc(/N=[N+](/[O-])c3ccc(/C=C/c4ccc(/N=N\c5cc(C)c(/N=N/c6cccc(S(=O)(=O)O)c6)cc5OC)cc4)c(S(=O)(=O)O)c3)cc2S(=O)(=O)O)cc1
GI50 (A498): > 100 µM (inactive) | GI50 (A549): > 100 µM (inactive) | GI50 (CCRF-CEM): > 100 µM (inactive) | GI50 (COLO 205): > 100 µM (inactive) | GI50 (DLD-1): > 100 µM (inactive) | GI50 (DMS-114): > 100 µM (inactive) | GI50 (DMS-273): > 100 µM (inactive) | GI50 (EKVX): > 100 µM (inactive) | GI50 (HCC 2998): > 100 µM (inactive) | GI50 (HCT-116): > 100 µM (inactive) | GI50 (HCT-15): > 100 µM | GI50 (HL-60): > 100 µM (inactive) | GI50 (HOP-18): > 100 µM (inactive) | GI50 (HOP-62): > 100 µM (inactive) | GI50 (HOP-92): > 77.3 µM (inactive) | GI50 (HT-29): > 100 µM (inactive) | GI50 (IGROV-1): > 100 µM (inactive) | GI50 (K562): > 100 µM (inactive) | GI50 (KM-20L2): > 100 µM (inactive) | GI50 (KM12): > 100 µM (inactive) | GI50 (LOX IMVI): > 100 µM (inactive) | GI50 (M19-MEL): > 100 µM (inactive) | GI50 (MCF7): > 100 µM (inactive) | GI50 (MOLT-4): > 100 µM (inactive) | GI50 (Malme-3M): > 100 µM (inactive) | GI50 (NCI-H226): > 100 µM (inactive) | GI50 (NCI-H23): > 100 µM (inactive) | GI50 (NCI-H460): > 100 µM (inactive) | GI50 (NCI-H522): > 93.5 µM (inactive) | GI50 (NCI/ADR-RES): > 100 µM (inactive) | GI50 (OVCAR-3): > 100 µM (inactive) | GI50 (OVCAR-4): > 66.7 µM (inactive) | GI50 (OVCAR-5): > 84.5 µM (inactive) | GI50 (OVCAR-8): > 100 µM (inactive) | GI50 (RXF 393): > 100 µM (inactive) | GI50 (SF-268): > 100 µM (inactive) | GI50 (SF-295): > 100 µM (inactive) | GI50 (SF-539): > 100 µM (inactive) | GI50 (SK-MEL-28): > 100 µM (inactive) | GI50 (SK-MEL-2): > 100 µM (inactive) | GI50 (SK-MEL-5): > 100 µM (inactive) | GI50 (SK-OV-3): > 100 µM (inactive) | GI50 (SN12C): > 100 µM (inactive) | GI50 (SNB-19): > 100 µM (inactive) | GI50 (SNB-75): > 100 µM (inactive) | GI50 (SW-620): > 100 µM (inactive) | GI50 (U-251): > 100 µM (inactive) | GI50 (UACC-257): > 100 µM (inactive) | GI50 (UACC-62): > 100 µM (inactive) | GI50 (UO-31): > 100 µM (inactive) | GI50 (XF498): > 100 µM (inactive)
